# Measured values published in US20200289605A1, “COMPOSITION FOR IMPROVING OR PREVENTING NONALCOHOLIC FATTY LIVER” (KOHJIN LIFE SCIENCES CO., LTD., priority 2015, published 2020).
# What was measured:
# [1] = test system: subjects who had NAFLD in 31 IU/L or more of ALT
# [2] = test system: Mice (C57/B6J) fed with high-fat food
# Description: Mice (C57/B6J, 8 weeks old male) were divided into 4 groups (5 animals each), and the first group (DB) was freely fed with ordinary food (Certified Diet “MF” manufactured by Oriental Yeast Co., ltd.). The second group (HFD) was freely fed with high-fat food (High Fat Diet 32, manufactured by CLEA Japan, Inc.), […].
# When the mouse was 20 weeks old, the body weight, the liver weight, the serum aspartate aminotransferase (AST), the alanine aminotransferase (ALT), the serum triglyceride (TG), the free fatty acid value (FFA) and the total cholesterol value (T-cho) were measured.
# [3] = HFD6 and HFD60 groups in comparison to the HFD group, 20 weeks old
# [4] = high-fat food mice, glutathione 6 or 60 mg/kg/day in water, 20 weeks old
smiles,measurement,setting,value
N[C@@H](CCC(=O)N[C@@H](CS)C(=O)NCC(=O)O)C(=O)O [glutathione],Effect of the present invention (ALT criterion),"[1]; Case IDs 10 to 16, 300 mg per day oral",not affected
same,FibroScan (after treatment) CAP,"[1]; after treatment, oral glutathione 300 mg per day, one value per subject (Case ID)",280 dBe
same,FFA (free fatty acid value),[2]; [3],significant decrease
same,T-cho (total cholesterol value),[2]; [3],significant decrease
same,TG (triglyceride value),[2]; [3],significant decrease
same,serum ALT,[2]; [3],significant decrease
same,serum AST,[2]; [3],significant decrease
same,deposition of fat on the liver by high-fat food,"[2]; high-fat food mice, glutathione 6 or 60 mg/kg/day in water",suppressed
same,liver weight,[2]; [4],decreased dependently on the concentration
same,ratio of liver weight/body weight,[2]; [4],decrease of the body weight ratio was also recognized
